In patent publication US20250092395A1, “A GLUN2D INHIBITOR FOR USE IN THE TREATMENT OR RELAPSE PREVENTION OF A DEPRESSIVE EPISODE” (priority 2022, published 2025):
“Also recorded” adds a separate entry of the source. Where a name gives a salt, the structure may show the parent alone.

Legend:
CDM mice = assay: Nose-poke sucrose preference test in CDM mice; type: in vivo; conditions: CDM mice, POST1 and POST2 nights
Description: Behavioral Readout: After the treatment intervention, animals were either tested in an additional swim session (test day) to measure immobility time or tested in the InteliCage using the Nose-pokes sucrose preference test. For the assessment of the immobility time, mice were videotaped and two independent raters who were blinded to the experimental group analyzed the videos. Immobility time was defined as the cumulative time that the animals spend stationary with only enough movements of the tails or the forepaws to keep the head above the water surface. No distance is actively travelled except for passive floating, no directed movement of the front paws observed and the body of the animal mostly oriented parallel to the walls of the cylinder.
The IntelliCage system (TSE Systems) allows simultaneous analysis of spontaneous and exploratory behavior, activity pattern, and drinking preference of up to 16 group-housed mice implanted with radio-frequency identification (RFID) transponders. The unit consists of an open common space with 4 red shelters in the center and 4 recording corners. Mice have free access to food in the middle of the IntelliCage, water is available in the corners behind remote-controlled guillotine doors. Each corner is equipped with 2 drinking bottles and permits the visit of only one mouse at the same time. The scored parameters—the nosepokes toward the doors and the licks on the bottles—were monitored by a PC-based tracking software (IntelliCage Plus, TSE Systems). Initially, the mice were allowed to adapt to the IntelliCage for at least 7 days with water available ad libitum in all corners. Then for 3 days the animals were habituated to the sucrose taste: in each corner one of the bottles was filled with 1% sucrose solution and the other one with water. Both doors in the corner were open allowing free choice between the bottles. Next, a nosepoke adaptation period was carried out, where all doors were closed and the mice had to perform a nosepoke to open them. The opened door closes automatically after 5 s of drinking. In all tasks involving sucrose-filled bottles, the positions of the bottles were exchanged every 24 h. The Nosepoke SPT protocol was used (see Alboni et al.) for measurement of sucrose preference with gradually increasing effort (number of nosepokes) to reach the sucrose bottles for a short period of time (12 h). In this paradigm each door opens in response to a nosepoke and closes after 5 s licking. The number of nosepokes needed to open a door to a side with a sucrose containing bottle gradually increases (1, 2, 3, 4, 5, 6, 8, 10, 12, 16, 20, 24) after every 8 sucrose licking sessions. For each bottle the number of licks was recorded and the averaged sucrose preference was calculated as percentage of the total number of licks.

[1] = system: CA3-CA1 synapse, CA1 pyramidal neurons in hippocampal brain slices; assay: LTP/LTD protocols and wash-in in brain slices of unstressed mice, substance in bathing solution; type: cell-based; conditions: for LTP inducibility, associative LTP protocol (aLTP): bath with picrotoxin, R,S-ketamine 10 μM, S-ketamine 5 μM
[2] = system: SOM-dependent feedback loop, CA1 PCs; assay: Feedback loop-activating protocol (FLAP) in CA1 PCs; type: cell-based, mice; conditions: for synaptic AP probability (conversion of EPSPs to APs) in FLAP: 10 μM washed in, 10-30 min vs baseline; for EPSP amplitude in the FLAP: wash-in of 10 μM after 10 min baseline
Protocol: A 300 ms depolarizing current between +100 and +[…] was injected via the patch pipette into a PC to elicit a train of 5-10 APs. After an interval of 600 ms, one EPSP (5-10 mV amplitude) was elicited by Schaffer collateral stimulation. This pattern was continuously repeated at a frequency of 0.2 Hz. Substances were added by bath application after a stable 10 min baseline recording for an additional 20 min. For data analysis the maximum EPSP amplitudes from minutes 0-10 were averaged and compared to averaged maximum EPSP amplitudes from minutes 20-30.
The slope of the EPSP rise at 20% to 40% of its maximal amplitude, at which point an approximately linear increase in its voltage could be assumed, was fitted with Fitmaster software (HEKA, Germany). We analyzed 20 EPSPs before and 20 EPSPs 25-30 minutes after NAB-14 wash-in in the FLAP protocol for each experiment. The coefficient of variation (CV) is the standard deviation of the EPSP slopes divided by the mean. The inverse square of the CV of the postwash-in slopes was divided by the inverse square of the prewash-in slopes and plotted against the corresponding normalized slopes. Pre- and postwash-in measurements from a single experiment are connected by a line. In a standard quantal model for synaptic transmission, synaptic responses are affected either by presynaptic changes in the number of release sites and/or the probability of release or by modifications of the postsynaptic response to a single […]. A change in the ratio of CV-2 reflects a presynaptic action, whereas horizontal lines in the CV-2 plot indicate a change in postsynaptic responsiveness.

[3] = unstressed mice, NAB-14 in bathing solution

CCN(CC)C(=O)Oc1ccc(C(=O)Nc2cccc3cc[nH]c23)cc1 [NAB-14]
sucrose preference (CDM mice; NAB (5 μM as printed) injection): fully reestablished | EPSP amplitude after aLTD stimulation [1, 3]: strongly increased the EPSP amplitude; also recorded: significant increase | basal EPSP-amplitude / synaptic transmission [1, 3]: did not change synaptic transmission; also recorded: did not affect basal EPSP-amplitude | IiLTP induced increase of EPSP amplitude ([1]; unstressed mice, NAB-14 in bathing solution, vs control IiLTP): increased IiLTP; also recorded: enhance IiLTP induced increase of EPSP amplitude significantly | synaptic AP probability (conversion of EPSPs to APs) in FLAP [2]: significant increase in synaptic AP probability | PC excitability: number of APs during the burst and input resistance (Rm) ([2]; NAB-14 10 μM in FLAP): did not significantly change; also recorded: no significant alteration in AP number; also recorded: no significant change in postsynaptic input resistance | coefficient of variation (CV) analysis of EPSP slopes before and after wash-in ([2]; NAB-14 wash-in in FLAP): consistent with a postsynaptic mechanism | EPSP amplitude in the FLAP [2]: significantly increased; also recorded: increased significantly

CNC1(c2ccccc2Cl)CCCCC1=O (stereo not shown) [R,S-ketamine, R,S-Ketamine hydrochloride]
sucrose preference (CDM mice; single R,S-ketamine injection, hydrochloride): renormalized; also recorded: completely reestablished | LTD induction [1]: could be blocked | paired-pulse ratio (PPR, EPSP2/EPSP1) before and after weak-aLTP (li-LTP) induction [1]: unchanged | EPSP amplitude after associative LTD protocol (aLTD, NMDAR-independent) ([1]; hydrochloride): unaffected; also recorded: neither R,S-ketamine (10 μM) nor S-ketamine (5 μM) had an effect | LTD inducibility, non-associative 1 Hz LTD protocol (NMDAR-dependent) ([1]; hydrochloride): fully blocked; also recorded: abolished | LTP inducibility, non-associative 100 Hz LTP protocol ([1]; hydrochloride): significant blockade of inducibility of LTP | aLTP induction ([1]; hydrochloride): neither K nor SK blocked aLTP induction; also recorded: not affected | low intensity LTP (IiLTP) induction ([1]; hydrochloride): blocked LTP induction; also recorded: blockade of LTP induction | low intensity LTP (IiLTP), EPSP amplitude ([1]; hydrochloride): significant increase in EPSP amplitude; also recorded: even enhanced LTP induction | LTP inducibility, associative LTP protocol (aLTP) ([1]; unstressed mice, hydrochloride): significant blockade of inducibility of LTP | LTP inducibility, associative LTP protocol (aLTP) ([1]; unstressed mice, listed as K, hydrochloride): complete inhibition of LTP | synaptic AP probability (conversion of EPSPs to APs) in FLAP ([2]; hydrochloride): higher percentage of APs; also recorded: significant increase in synaptic AP probability | EPSP amplitude in the FLAP ([2]; hydrochloride): dramatically increased | EPSP amplitude in the FLAP ([2]; listed as ketamine, hydrochloride): increased significantly
